Format in all cases: biochemical
Assay [1] deals with T1, HCV NS3/4A protease complex (H77C strain, 1a genotype) (Hepatitis C virus genotype 1a, UniProt P27958, C1454S).
T1 construct: DNA encoding the recombinant HCV NS3/4A protease complex (amino acids 1027 to 1711) for these strains; inferred from the pET21b vector and Ni-NTA purification; made in house; host or cells: Escherichia coli BL21 (DE3), pET21b
Nature of the assay: Recombinant HCV NS3/4A protease complex FRET peptide assay, H77C strain. The source says:
(§1) The purpose of this in vitro assay was to measure the inhibition of HCV NS3 protease complexes, derived from the BMS, H77C or J416S strains, as described below, by compounds of the present invention.
(§2) Serum from an HCV-infected patient was obtained from Dr. T. Wright, San Francisco Hospital. An engineered full-length cDNA (compliment deoxyribonucleic acid) template of the HCV genome (BMS strain) was constructed from DNA fragments obtained by reverse transcription-PCR (RT-PCR) of serum RNA (ribonucleic acid) and using primers selected on the basis of homology between other genotype 1a strains. […] The infectious clones, H77C (1a genotype) and J4L6S (1b genotype) were obtained from R. Purcell (NIH) and the sequences are published in Genbank (AAB67036, see Yanagi,M., Purcell,R. H., Emerson,S. U. and Bukh,J. Proc. Natl. Acad. Sci. U.S.A. 94(16),8738-8743 (1997); AF054247, see Yanagi,M., St Claire,M., Shapiro,M., Emerson,S. U., Purcell,R. H. and Bukh,J, Virology 244 (1), 161-172. (1998)).
(§3) The BMS, H77C and J4L6S strains were used for production of recombinant NS3/4A protease complexes. DNA encoding the recombinant HCV NS3/4A protease complex (amino acids 1027 to 1711) for these strains were manipulated as described by P. Gallinari et al. (see Gallinari P, Paolini C, Brennan D, Nardi C, Steinkuhler C, De Francesco R. Biochemistry. 38(17):5620-32, (1999)). […]

In assay [2] the target is T2, human sputum elastase (HS) (Homo sapiens, UniProt P08246).
T2 construct: purchased Sigma
T2 sequence (P08246 30-267): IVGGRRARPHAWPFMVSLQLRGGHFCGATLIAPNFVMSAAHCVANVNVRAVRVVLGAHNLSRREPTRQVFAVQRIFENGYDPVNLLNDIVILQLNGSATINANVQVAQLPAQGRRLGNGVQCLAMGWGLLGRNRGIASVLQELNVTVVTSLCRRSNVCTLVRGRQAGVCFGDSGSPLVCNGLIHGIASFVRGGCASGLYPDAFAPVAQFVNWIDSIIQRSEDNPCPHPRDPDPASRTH
Put plainly: Specificity assay, human sputum elastase. The following applies: 2 hr pre-incubation.

Assay [3] addresses T3, HCV NS3/4A protease complex (J4L6S strain, 1b genotype) (Hepatitis C virus genotype 1b, UniProt O92972, C1454S/C1711G).
T3 construct: DNA encoding the recombinant HCV NS3/4A protease complex (amino acids 1027 to 1711) for these strains; inferred from the pET21b vector and Ni-NTA purification; made in house; host or cells: Escherichia coli BL21 (DE3), pET21b
Nature of the assay: Recombinant HCV NS3/4A protease complex FRET peptide assay, J4L6S strain.
Source text: as §1, §2, §3

The target of assay [4] is T4, human liver cathepsin B (Homo sapiens, UniProt P07858).
T4 construct: purchased Sigma
Nature of the assay: Specificity assay, cathepsin B. The following applies: 2 hr pre-incubation. How it is done: The specificities of compounds of the present invention were determined against a variety of serine proteases: human sputum elastase (HS), porcine pancreatic elastase (PPE) and human pancreatic chymotrypsin and one cysteine protease: human liver cathepsin B. In all cases a 96-well plate format protocol using colorimetric p-nitroaniline (pNA) substrate specific for each enzyme was used as described previously (Patent WO 00/09543) with some modifications to the serine protease assays. All enzymes were purchased from Sigma while the substrates were from Bachem.
Each assay included a 2 hr enzyme-inhibitor pre-incubation at room temperature followed by addition of substrate and hydrolysis to ˜30% conversion as measured on a Spectramax Pro microplate reader. Compound concentrations varied from 100 to 0.4 μM depending on their potency. […]
The percentage of inhibition was calculated using the formula: [1−((UVinh−UVblank)/(UVctl−UVblank))]×100 […]

The values below come from patent US6878722B2, “Substituted cycloalkyl P1′ hepatitis C virus inhibitors” (Bristol-Myers Squibb Company, priority 2002, dated 2005).

T1 sequence (P27958 1027-1657 C1454S): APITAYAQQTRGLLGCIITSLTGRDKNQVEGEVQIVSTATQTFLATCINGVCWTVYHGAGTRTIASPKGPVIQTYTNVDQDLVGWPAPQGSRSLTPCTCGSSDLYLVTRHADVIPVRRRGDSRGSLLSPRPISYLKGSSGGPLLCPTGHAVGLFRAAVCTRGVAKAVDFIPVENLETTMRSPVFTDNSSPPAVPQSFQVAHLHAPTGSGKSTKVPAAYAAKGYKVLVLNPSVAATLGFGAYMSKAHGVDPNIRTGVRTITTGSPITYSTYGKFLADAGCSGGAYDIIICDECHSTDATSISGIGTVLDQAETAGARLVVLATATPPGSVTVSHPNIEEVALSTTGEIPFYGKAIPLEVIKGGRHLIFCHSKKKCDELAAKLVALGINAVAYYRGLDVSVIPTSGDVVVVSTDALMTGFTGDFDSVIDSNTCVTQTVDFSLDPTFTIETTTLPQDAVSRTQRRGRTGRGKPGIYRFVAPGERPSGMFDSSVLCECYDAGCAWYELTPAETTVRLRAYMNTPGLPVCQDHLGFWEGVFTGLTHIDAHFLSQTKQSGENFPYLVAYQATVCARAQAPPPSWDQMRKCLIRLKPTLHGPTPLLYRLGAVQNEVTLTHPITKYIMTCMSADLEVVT
T1 sequence (P27958 1658-1714 partner, looked up, stated change not applied): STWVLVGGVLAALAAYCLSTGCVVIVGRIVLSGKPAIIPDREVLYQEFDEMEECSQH
T3 sequence (O92972 1027-1711 C1454S/C1711G, one chain of several): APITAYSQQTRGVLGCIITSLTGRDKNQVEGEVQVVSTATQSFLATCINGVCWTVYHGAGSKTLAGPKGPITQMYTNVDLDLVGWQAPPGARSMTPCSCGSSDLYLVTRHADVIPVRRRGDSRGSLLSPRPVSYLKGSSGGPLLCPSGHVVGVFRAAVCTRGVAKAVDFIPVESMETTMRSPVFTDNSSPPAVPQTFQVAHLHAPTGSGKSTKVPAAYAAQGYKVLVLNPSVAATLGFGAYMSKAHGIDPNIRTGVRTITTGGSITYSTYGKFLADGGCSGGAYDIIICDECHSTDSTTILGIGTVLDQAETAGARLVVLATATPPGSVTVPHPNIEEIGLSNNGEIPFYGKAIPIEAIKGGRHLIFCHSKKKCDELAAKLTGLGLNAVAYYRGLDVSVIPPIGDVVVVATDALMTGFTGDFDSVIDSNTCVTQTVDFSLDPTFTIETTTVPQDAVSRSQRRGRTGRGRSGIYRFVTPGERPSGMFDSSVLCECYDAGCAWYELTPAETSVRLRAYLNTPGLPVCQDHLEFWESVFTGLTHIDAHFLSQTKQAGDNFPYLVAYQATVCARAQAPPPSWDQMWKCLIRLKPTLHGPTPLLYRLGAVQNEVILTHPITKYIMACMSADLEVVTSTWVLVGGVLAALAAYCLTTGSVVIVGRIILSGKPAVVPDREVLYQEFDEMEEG

As to `C=CC1C[C@]1(NC(=O)[C@@H]1C[C@@H](Oc2cc(-c3ccccc3)nc3cc(OC)ccc23)CN1C(=O)[C@@H](NC(=O)OC(C)(C)C)C(C)(C)C)C(=O)NS(=O)(=O)C1(C)CC1` (stereo in doubt) [Compound 1, (1-{4-(7-Methoxy-2-phenylquinolin-4-yloxy)-2-[1-(1-methylcyclopropanesulfonylaminocarbonyl)-2-vinylcyclopropylcarbamoyl]pyrrolidine-1-carbonyl}-2,2-dimethylpropyl)carbamic acid tert-butyl ester], the half-maximal inhibitory concentration (IC50) was 1.2 nM in assay [1], 43000 nM in assay [2], 1.1 nM in assay [3] and more than 100000 nM in assay [4].
